# Reference: patent US10174047B2, “Thienodiazepine derivatives or pharmaceutically acceptable salts thereof, and pharmaceutical composition including the same as an active ingredient” (Industry-University Cooperation Foundation Hanyang …, priority 2015, dated 2019)
# Tested on: A375P cell line (melanoma)
# Test: Proliferation inhibition activity against A375P cell line (MTT assay)
# Assay type: cell-based
# Details: A375P melanoma cells, MTT assay; read-out: A375P (GI50)
# Experimental: Measurement of Proliferation Inhibition Activity Against A375P Cell Line (Melanoma)
# An A375P cell line purchased from ATCC was cultured in a DMEM medium [containing 10% FBS, 1% penicillin/streptomycin] at 37° C. in the presence of 5% CO2. The cultured A375P cell line was taken using 0.05% trypsin-0.02% EDTA, and seeded into a 96-well plate at a density of 5×10^3 cells per well.
# Cell viability was measured using an MTT [3-(4,5-dimethylthiazol-2-yl)-2,5-diphenyltetrazolium bromide] assay (CellTiter 96 Assay, Promega) as follows. 15 μl of dye was placed per well, the cells were cultured for 2 hours, and then treated with 100 μl of a stop solution, and after 24 hours, absorbance was measured. One day after plating, they were treated with compounds. For treatment with compounds, […] of stock was prepared, and serially diluted to one-third in dimethyl sulfoxide (DMSO) to prepare a 12-point test compound plate, and 0.5 μl was added (final concentration DMSO 0.5%).
# In the following Tables 1 to 3, in a case of GI50 being 10 to 30 μM, it was indicated as (+), in a case of it being 1 to 10 μM, it was indicated as (++), and in case of being less than 1 μM, it was indicated as (+++).
row,Compound,GI50 [µM]
1,"O=C(Cc1ccc(-c2ccccc2)cc1)Nc1cccc(C2=Nc3cscc3NC(=O)C2)c1 [Example 33, 2-(biphenyl-4-yl)-N-(3-(2-oxo-2,3-dihydro-1H-thieno[3,4-b][1,4]diazepine-4-yl)phenyl)acetamide]",10 to 30
2,"Cc1cc(C)cc(C(=O)Nc2cccc(C3=Nc4cscc4NC(=O)C3)c2)c1 [Example 34, 3,5-dimethyl-N-(3-(2-oxo-2,3-dihydro-1H-thieno[3,4-b][1,4]diazepine-4-yl)phenyl)benzamide]",10 to 30
3,"O=C(Cc1ccccc1F)Nc1cccc(C2=Nc3cscc3NC(=O)C2)c1 [Example 35, 2-(2-fluorophenyl)-N-(3-(2-oxo-2,3-dihydro-1H-thieno[3,4-b][1,4]diazepine-4-yl)phenyl)acetamide]",10 to 30
4,"O=C1CC(c2cccc(NC(=O)c3ccc4ccccc4n3)c2)=Nc2cscc2N1 [Example 36, N-(3-(2-oxo-2,3-dihydro-1H-thieno[3,4-b][1,4]diazepine-4-yl)phenyl)quinoline-2-carboxamide]",10 to 30
5,"O=C1CC(c2cccc(NC(=O)c3cnc4ccccc4c3)c2)=Nc2cscc2N1 [Example 37, N-(3-(2-oxo-2,3-dihydro-1H-thieno[3,4-b][1,4]diazepine-4-yl)phenyl)quinoline-3-carboxamide]",10 to 30
6,"Cc1c(C)c2c(c(C)c1O)CC[C@](C)(C(=O)Nc1cccc(C3=Nc4cscc4NC(=O)C3)c1)O2 [Example 38, (R)-6-hydroxy-2,5,7,8-tetramethyl-N-(3-(2-oxo-2,3-dihydro-1H-thieno[3,4-b][1,4]diazepine-4-yl)phenyl)chroman-2-carboxamide]",10 to 30
7,"O=C1CC(c2ccc(NC(=O)Nc3ccc(Cl)c(C(F)(F)F)c3)cc2)=Nc2cscc2N1 [Example 39, 1-(4-chloro-3-(trifluoromethyl)phenyl)-3-(4-(2-oxo-2,3-dihydro-1H-thieno[3,4-b][1,4]diazepine-4-yl)phenyl)urea]",< 1
8,"O=C1CC(c2ccc(NC(=O)Nc3ccc(Cl)cc3)cc2)=Nc2cscc2N1 [Example 40, 1-(4-chlorophenyl)-3-(4-(2-oxo-2,3-dihydro-1H-thieno[3,4-b][1,4]diazepine-4-yl)phenyl)urea]",1 to 10
9,"O=C1CC(c2ccc(NC(=O)Nc3cccc(Cl)c3)cc2)=Nc2cscc2N1 [Example 41, 1-(3-chlorophenyl)-3-(4-(2-oxo-2,3-dihydro-1H-thieno[3,4-b][1,4]diazepine-4-yl)phenyl)urea]",10 to 30

# Second part, the compound after the results:
row,GI50 [µM],Compound
1,1 to 10,"O=C1CC(c2ccc(NC(=O)Nc3ccc(Cl)c(Cl)c3)cc2)=Nc2cscc2N1 [Example 42, 1-(3,4-dichlorophenyl)-3-(4-(2-oxo-2,3-dihydro-1H-thieno[3,4-b][1,4]diazepine-4-yl)phenyl)urea]"
2,< 1,"O=C1CC(c2ccc(NC(=O)Nc3cc(Cl)cc(Cl)c3)cc2)=Nc2cscc2N1 [Example 44, 1-(3,5-dichlorophenyl)-3-(4-(2-oxo-2,3-dihydro-1H-thieno[3,4-b][1,4]diazepine-4-yl)phenyl)urea]"
3,10 to 30,"O=C1CC(c2ccc(NC(=O)Nc3ccccc3F)cc2)=Nc2cscc2N1 [Example 45, 1-(2-fluorophenyl)-3-(4-(2-oxo-2,3-dihydro-1H-thieno[3,4-b][1,4]diazepine-4-yl)phenyl)urea]"
4,1 to 10,"O=C1CC(c2cccc(NC(=O)Nc3ccc(Cl)c(C(F)(F)F)c3)c2)=Nc2cscc2N1 [Example 46, 1-(4-chloro-3-(trifluoromethyl)phenyl)-3-(3-(2-oxo-2,3-dihydro-1H-thieno[3,4-b][1,4]diazepine-4-yl)phenyl)urea]"
5,1 to 10,"O=C1CC(c2cccc(NC(=O)Nc3ccc(Cl)cc3)c2)=Nc2cscc2N1 [Example 47, 1-(4-chlorophenyl)-3-(3-(2-oxo-2,3-dihydro-1H-thieno[3,4-b][1,4]diazepine-4-yl)phenyl)urea]"
6,< 1,"O=C1CC(c2cccc(NC(=O)Nc3cccc(Cl)c3)c2)=Nc2cscc2N1 [Example 48, 1-(3-chlorophenyl)-3-(3-(2-oxo-2,3-dihydro-1H-thieno[3,4-b][1,4]diazepine-4-yl)phenyl)urea]"
7,< 1,"CCN1CCN(Cc2ccc(NC(=O)Nc3cccc(C4=Nc5cscc5NC(=O)C4)c3)cc2C(F)(F)F)CC1 [Example 49, 1-(4-((4-ethylpiperazine-1-yl)methyl)-3-(trifluoromethyl)phenyl)-3-(3-(2-oxo-2,3-dihydro-1H-thieno[3,4-b][1,4]diazepine-4-yl)phenyl)urea]"
8,1 to 10,"O=C1CC(c2cccc(NC(=O)Nc3ccc(Cl)c(Cl)c3)c2)=Nc2cscc2N1 [Example 50, 1-(3,4-dichlorophenyl)-3-(3-(2-oxo-2,3-dihydro-1H-thieno[3,4-b][1,4]diazepine-4-yl)phenyl)urea]"
9,10 to 30,"O=C1CC(c2cccc(NC(=O)Nc3cc(Cl)cc(Cl)c3)c2)=Nc2cscc2N1 [Example 51, 1-(3,5-dichlorophenyl)-3-(3-(2-oxo-2,3-dihydro-1H-thieno[3,4-b][1,4]diazepine-4-yl)phenyl)urea]"
10,10 to 30,"O=C1CC(c2cccc(NC(=O)Nc3ccccc3F)c2)=Nc2cscc2N1 [Example 52, 1-(2-fluorophenyl)-3-(3-(2-oxo-2,3-dihydro-1H-thieno[3,4-b][1,4]diazepine-4-yl)phenyl)urea]"

# Same assay, conditions: A375P melanoma cells, MTT assay; read-out: GI50 value against A375P
row,GI50 [µM],Compound
1,2.74,"CNC(=O)c1cc(Oc2ccc(NC(=O)Nc3ccc(Cl)c(C(F)(F)F)c3)cc2)ccn1 [Sorafenib, reference compound]"

# Same assay, conditions: A375P melanoma cells, statement in words
row,Compound,effects against A375P
1,"O=C1CC(c2ccc(NC(=O)Nc3ccc(Cl)c(C(F)(F)F)c3)cc2)=Nc2cscc2N1 [Example 39, 1-(4-chloro-3-(trifluoromethyl)phenyl)-3-(4-(2-oxo-2,3-dihydro-1H-thieno[3,4-b][1,4]diazepine-4-yl)phenyl)urea]",significant effects
2,"O=C1CC(c2ccc(NC(=O)Nc3cc(Cl)cc(Cl)c3)cc2)=Nc2cscc2N1 [Example 44, 1-(3,5-dichlorophenyl)-3-(4-(2-oxo-2,3-dihydro-1H-thieno[3,4-b][1,4]diazepine-4-yl)phenyl)urea]",significant effects
3,"O=C1CC(c2cccc(NC(=O)Nc3cccc(Cl)c3)c2)=Nc2cscc2N1 [Example 48, 1-(3-chlorophenyl)-3-(3-(2-oxo-2,3-dihydro-1H-thieno[3,4-b][1,4]diazepine-4-yl)phenyl)urea]",significant effects
4,"CCN1CCN(Cc2ccc(NC(=O)Nc3cccc(C4=Nc5cscc5NC(=O)C4)c3)cc2C(F)(F)F)CC1 [Example 49, 1-(4-((4-ethylpiperazine-1-yl)methyl)-3-(trifluoromethyl)phenyl)-3-(3-(2-oxo-2,3-dihydro-1H-thieno[3,4-b][1,4]diazepine-4-yl)phenyl)urea]",significant effects
